Test results from the NIST ThermoML archive (doi:10.1021/je900916e).
Numbers after ± are expanded uncertainties.

Assay: cn = amount concentration of the nth substance listed, in mol/dm3
Settings: 101 kPa, Liquid, Advanced Conductivity Orion 162A

CC[N+](CC)(CC)CC.O=C([O-])C(F)(F)C(F)(F)C(F)(F)C(F)(F)C(F)(F)C(F)(F)C(F)(F)F [tetraethylammonium perfluorooctanoate] + O
Settings | electrical conductivity [S/m]
288.15 K, c1 = 0.000744 | 0.00332 ± 7e-05
288.15 K, c1 = 0.001478 | 0.00651 ± 0.00013
288.15 K, c1 = 0.0022 | 0.0094 ± 0.00019
288.15 K, c1 = 0.002913 | 0.0122 ± 0.00024
288.15 K, c1 = 0.003614 | 0.015 ± 0.0003
288.15 K, c1 = 0.004306 | 0.0176 ± 0.00035
288.15 K, c1 = 0.005101 | 0.0205 ± 0.00041
288.15 K, c1 = 0.005882 | 0.0233 ± 0.00047
288.15 K, c1 = 0.006651 | 0.0258 ± 0.00052
288.15 K, c1 = 0.007407 | 0.0275 ± 0.00055
288.15 K, c1 = 0.008152 | 0.0283 ± 0.00057
288.15 K, c1 = 0.009091 | 0.0292 ± 0.00058
288.15 K, c1 = 0.01011 | 0.0301 ± 0.0006
288.15 K, c1 = 0.01131 | 0.0311 ± 0.00062
288.15 K, c1 = 0.01266 | 0.0322 ± 0.00064
288.15 K, c1 = 0.01398 | 0.0332 ± 0.00066
288.15 K, c1 = 0.01543 | 0.0343 ± 0.00069
293.15 K, c1 = 0.000662 | 0.00339 ± 7e-05
293.15 K, c1 = 0.001316 | 0.00649 ± 0.00013
293.15 K, c1 = 0.001961 | 0.00944 ± 0.00019
293.15 K, c1 = 0.002597 | 0.0123 ± 0.00025
293.15 K, c1 = 0.003226 | 0.0149 ± 0.0003
293.15 K, c1 = 0.003846 | 0.0176 ± 0.00035
293.15 K, c1 = 0.004458 | 0.0201 ± 0.0004
293.15 K, c1 = 0.005063 | 0.0226 ± 0.00045
293.15 K, c1 = 0.00566 | 0.0249 ± 0.0005
293.15 K, c1 = 0.00625 | 0.027 ± 0.00054
293.15 K, c1 = 0.006832 | 0.029 ± 0.00058
293.15 K, c1 = 0.007407 | 0.0301 ± 0.0006
293.15 K, c1 = 0.007975 | 0.0309 ± 0.00062
293.15 K, c1 = 0.008536 | 0.0316 ± 0.00063
293.15 K, c1 = 0.00942 | 0.0325 ± 0.00065
293.15 K, c1 = 0.01029 | 0.0334 ± 0.00067
293.15 K, c1 = 0.01114 | 0.0342 ± 0.00068
293.15 K, c1 = 0.01218 | 0.0351 ± 0.0007
293.15 K, c1 = 0.01319 | 0.036 ± 0.00072
293.15 K, c1 = 0.01419 | 0.0369 ± 0.00074
293.15 K, c1 = 0.01516 | 0.0378 ± 0.00076
298.15 K, c1 = 0.000662 | 0.00389 ± 8e-05
298.15 K, c1 = 0.001316 | 0.00743 ± 0.00015
298.15 K, c1 = 0.001961 | 0.0108 ± 0.00022
298.15 K, c1 = 0.002597 | 0.0141 ± 0.00028
298.15 K, c1 = 0.003226 | 0.0172 ± 0.00034
298.15 K, c1 = 0.003846 | 0.0202 ± 0.0004
298.15 K, c1 = 0.004458 | 0.0231 ± 0.00046
298.15 K, c1 = 0.005063 | 0.0259 ± 0.00052
298.15 K, c1 = 0.00566 | 0.0286 ± 0.00057
298.15 K, c1 = 0.00625 | 0.0313 ± 0.00063
298.15 K, c1 = 0.006832 | 0.0329 ± 0.00066
298.15 K, c1 = 0.007407 | 0.0339 ± 0.00068
298.15 K, c1 = 0.007975 | 0.0348 ± 0.0007
298.15 K, c1 = 0.008536 | 0.0356 ± 0.00071
298.15 K, c1 = 0.00942 | 0.0366 ± 0.00073
298.15 K, c1 = 0.01029 | 0.0376 ± 0.00075
298.15 K, c1 = 0.01114 | 0.0386 ± 0.00077
298.15 K, c1 = 0.01218 | 0.0397 ± 0.00079
298.15 K, c1 = 0.01319 | 0.0409 ± 0.00082
298.15 K, c1 = 0.01419 | 0.042 ± 0.00084
298.15 K, c1 = 0.01516 | 0.0431 ± 0.00086
303.15 K, c1 = 0.000662 | 0.00431 ± 9e-05
303.15 K, c1 = 0.001316 | 0.00815 ± 0.00016
303.15 K, c1 = 0.001961 | 0.0119 ± 0.00024
303.15 K, c1 = 0.002597 | 0.0154 ± 0.00031
303.15 K, c1 = 0.003226 | 0.0189 ± 0.00038
303.15 K, c1 = 0.003846 | 0.0222 ± 0.00044
303.15 K, c1 = 0.004458 | 0.0254 ± 0.00051
303.15 K, c1 = 0.005063 | 0.0285 ± 0.00057
303.15 K, c1 = 0.00566 | 0.0314 ± 0.00063
303.15 K, c1 = 0.00625 | 0.0344 ± 0.00069
303.15 K, c1 = 0.006832 | 0.0365 ± 0.00073
303.15 K, c1 = 0.007407 | 0.038 ± 0.00076
303.15 K, c1 = 0.007975 | 0.0389 ± 0.00078
303.15 K, c1 = 0.008536 | 0.0398 ± 0.0008
303.15 K, c1 = 0.00942 | 0.0409 ± 0.00082
303.15 K, c1 = 0.01029 | 0.042 ± 0.00084
303.15 K, c1 = 0.01114 | 0.0431 ± 0.00086
303.15 K, c1 = 0.01218 | 0.0444 ± 0.00089
303.15 K, c1 = 0.01319 | 0.0457 ± 0.00091
303.15 K, c1 = 0.01419 | 0.047 ± 0.00094
303.15 K, c1 = 0.01516 | 0.0483 ± 0.00097
308.15 K, c1 = 0.000744 | 0.00544 ± 0.00011
308.15 K, c1 = 0.001478 | 0.0102 ± 0.0002
308.15 K, c1 = 0.0022 | 0.0148 ± 0.0003
308.15 K, c1 = 0.002913 | 0.0193 ± 0.00039
308.15 K, c1 = 0.003614 | 0.0234 ± 0.00047
308.15 K, c1 = 0.004306 | 0.0275 ± 0.00055
308.15 K, c1 = 0.004988 | 0.0316 ± 0.00063
308.15 K, c1 = 0.00566 | 0.0354 ± 0.00071
308.15 K, c1 = 0.006323 | 0.0391 ± 0.00078
308.15 K, c1 = 0.006977 | 0.0419 ± 0.00084
308.15 K, c1 = 0.007621 | 0.0433 ± 0.00087
308.15 K, c1 = 0.008467 | 0.0448 ± 0.0009
308.15 K, c1 = 0.009297 | 0.0462 ± 0.00092
308.15 K, c1 = 0.01011 | 0.0475 ± 0.00095
308.15 K, c1 = 0.01111 | 0.049 ± 0.00098
308.15 K, c1 = 0.01228 | 0.0508 ± 0.001
308.15 K, c1 = 0.01361 | 0.0527 ± 0.001
308.15 K, c1 = 0.01489 | 0.0545 ± 0.0011
308.15 K, c1 = 0.01632 | 0.0565 ± 0.0011
313.15 K, c1 = 0.000662 | 0.00523 ± 0.0001
313.15 K, c1 = 0.001316 | 0.0101 ± 0.0002
313.15 K, c1 = 0.001961 | 0.0146 ± 0.00029
313.15 K, c1 = 0.002597 | 0.0189 ± 0.00038
313.15 K, c1 = 0.003226 | 0.0231 ± 0.00046
313.15 K, c1 = 0.003846 | 0.0272 ± 0.00054
313.15 K, c1 = 0.004458 | 0.0312 ± 0.00062
313.15 K, c1 = 0.005063 | 0.0351 ± 0.0007
313.15 K, c1 = 0.00566 | 0.0388 ± 0.00078
313.15 K, c1 = 0.00625 | 0.0422 ± 0.00084
313.15 K, c1 = 0.006832 | 0.0455 ± 0.00091
313.15 K, c1 = 0.007407 | 0.047 ± 0.00094
313.15 K, c1 = 0.007975 | 0.0482 ± 0.00096
313.15 K, c1 = 0.008536 | 0.0493 ± 0.00099
313.15 K, c1 = 0.00942 | 0.0508 ± 0.001
313.15 K, c1 = 0.01029 | 0.0523 ± 0.001
313.15 K, c1 = 0.01114 | 0.0537 ± 0.0011
313.15 K, c1 = 0.01218 | 0.0554 ± 0.0011
313.15 K, c1 = 0.01319 | 0.0571 ± 0.0011
313.15 K, c1 = 0.01419 | 0.0587 ± 0.0012
313.15 K, c1 = 0.01516 | 0.0603 ± 0.0012
318.15 K, c1 = 0.000744 | 0.00628 ± 0.00013
318.15 K, c1 = 0.001478 | 0.0121 ± 0.00024
318.15 K, c1 = 0.0022 | 0.0177 ± 0.00035
318.15 K, c1 = 0.002913 | 0.023 ± 0.00046
318.15 K, c1 = 0.003614 | 0.028 ± 0.00056
318.15 K, c1 = 0.004306 | 0.033 ± 0.00066
318.15 K, c1 = 0.004988 | 0.0379 ± 0.00076
318.15 K, c1 = 0.00566 | 0.0424 ± 0.00085
318.15 K, c1 = 0.006323 | 0.0468 ± 0.00094
318.15 K, c1 = 0.006977 | 0.0504 ± 0.001
318.15 K, c1 = 0.007621 | 0.0534 ± 0.0011
318.15 K, c1 = 0.008257 | 0.0548 ± 0.0011
318.15 K, c1 = 0.009091 | 0.0566 ± 0.0011
318.15 K, c1 = 0.00991 | 0.0583 ± 0.0012
318.15 K, c1 = 0.01091 | 0.0602 ± 0.0012
318.15 K, c1 = 0.01209 | 0.0624 ± 0.0013
318.15 K, c1 = 0.01342 | 0.0646 ± 0.0013
318.15 K, c1 = 0.01471 | 0.0667 ± 0.0013
318.15 K, c1 = 0.01614 | 0.0692 ± 0.0014
